Format in all cases: cell-based
Conditions in all cases: 72 h; human CD4+ T cells under TH17-polarizing conditions, 3 days, supernatant ELISA, 0.1% DMSO
Background: An ELISA detects its analyte on a solid surface through an enzyme-linked reagent.

One assay has as its system IL-22. The experiment in a line: Human TH17 cytokine inhibition measured by ELISA: IL-22.
The subject of another assay is IL-17F. In words: Human TH17 cytokine inhibition measured by ELISA: IL-17F. Here is the method:
(§1) Human TH17 Cytokine Inhibition as Measured by ELISA
(§2) Peripheral blood mononuclear cells (PBMCs) were sourced from freshly prepared leukocyte enriched plasma (buffy coat) from healthy donors (New York Blood Center). PBMCs were isolated by density gradient centrifugation using Ficoll-Paque™ PLUS (GE Healthcare). Human CD4+ T cells were seeded into 96-well plates (5×10^4 cells/well) and activated with plate-bound anti-human (h)-CD3 antibody and soluble h-aCD28 (both at lug/ml; eBioscience) and differentiated into TH17 cells with 20 ng/mL h-IL-6, 5 ng/mL h-TGF-β1, 10 ng/mL h-IL-23 (eBioscience) and 10 ng/mL IL-1β (Miltenyi Biotec) in serum-free TexMACS Medium (Miltenyi Biotec) supplemented with 1% Penicillin/Streptomycin (Lonza) for 3 days. CD4+ T cells propagated under TH17-polarizing conditions were cultured in the presence or absence of various concentrations of compounds with a final concentration of 0.1% DMSO. Supernatants were collected and stored at −20° C. until assayed for IL-17A, IL-17F and IL-21 levels by “Ready-Set-Go” ELISA kits (eBioscience) as per manufacturer's instructions. Endpoint absorbance was read at 450 nm using a microplate reader (Perkin Elmer).

Another assay deals with IL-21. In words: Human TH17 cytokine inhibition measured by ELISA: IL-21. How it is done:
as §1, §2

Another assay relates to IL-17A. The experiment in a line: Human TH17 cytokine inhibition measured by ELISA: IL-17A. Here is the method: as §1, §2

As usually defined, the IC50 is the concentration that inhibits the measured activity by half. Consider `O=C(c1ccccc1)N1CCC(Cn2cnc3cc(-c4cn[nH]c4)ccc32)CC1` [Example 7, (4-((5-(1H-pyrazol-4-yl)-1H-benzo[d]imidazol-1-yl)methyl)piperidin-1-yl)(phenyl)methanone], for which the IC50 with IL-22 is below 10 µM; in the assay on IL-17F, below 10 µM; in the assay on IL-21, below 10 µM; with IL-17A it was above 10 µM.
`O=C(Cc1ccccc1)N1CCC(Cn2cnc3cc(-c4cn[nH]c4)ccc32)CC1` [Example 8]: the IC50 in the assay on IL-22 is below 10 µM; in the assay with IL-17F it was below 10 µM; with IL-21, below 10 µM; in the assay with IL-17A, above 10 µM.
Regarding `O=C(CCc1ccccc1)N1CCC(Cn2cnc3cc(-c4cn[nH]c4)ccc32)CC1` [Example 9, 1-(4-((5-(1H-pyrazol-4-yl)-1H-benzo[d]imidazol-1-yl)methyl)piperidin-1-yl)-3-phenylpropan-1-one], the IC50 with IL-22, with IL-17F, in the assay with IL-21 and in the assay with IL-17A was below 10 µM each time.
As to `O=C(CC1CCCCC1)N1CCC(Cn2cnc3cc(-c4cn[nH]c4)ccc32)CC1` [Example 10], the IC50 in the assay on IL-22, in the assay on IL-17F, in the assay with IL-21 and with IL-17A was below 10 µM throughout.
In the case of `O=S(=O)(c1ccccc1)N1CCC(Cn2cnc3cc(-c4cn[nH]c4)ccc32)CC1` [Example 11, 1-((1-(phenylsulfonyl)piperidin-4-yl)methyl)-5-(1H-pyrazol-4-yl)-1H-benzo[d]imidazole], the IC50 in the assay with IL-22, with IL-17F, in the assay on IL-21 and in the assay on IL-17A was below 10 µM in each case.
With `O=S(=O)(Cc1ccccc1)N1CCC(Cn2cnc3cc(-c4cn[nH]c4)ccc32)CC1` [Example 12, 1-((1-(benzylsulfonyl)piperidin-4-yl)methyl)-5-(1H-pyrazol-4-yl)-1H-benzo[d]imidazole], the IC50 with IL-22 was below 10 µM; with IL-17F, below 10 µM; with IL-21, above 10 µM; with IL-17A, below 10 µM.

(Values after patent US20160024052A1, “BENZIMIDAZOLE RETINOIC ACID RECEPTOR-RELATED ORPHAN RECEPTOR MODULATORS AND USES THEREOF” (INNOV17 LLC, priority 2014, published 2016).)
